{"source": "patent US8912136B2", "about": "“Methods and compositions related to clot-binding compounds” (Sanford-Burnham Medical Research Institute, priority 2009, dated 2014)", "key": {"[1]": {"tested_on": "MDA-MB-435 human breast cancer xenografts", "assay": "Tumor homing of intravenously injected fluorescent CREKA peptide", "format": "in vivo, mouse", "description": "(§1) CREKA peptide. A tumor-homing peptide was used to construct targeted nanoparticles. […] The most frequently represented peptide sequence in the selected phage preparation was CREKA (cys-arg-glu-lys-ala; SEQ ID NO:1). The CREKA peptide was synthesized with a fluorescent dye attached to the N-terminus and the in vivo distribution of the peptide was studied in tumor-bearing mice. […] The peptide formed a distinct meshwork in the tumor stroma (FIG. 5), and it also highlighted the blood vessels in the tumors.\n(§2) Phage screening, tumors and peptides. In vivo screening of a peptide library with the general structure of CX7C (SEQ ID NO: 4), where C is cysteine and X is any amino acid, was carried out as described (Oh 2004) using 65- to 75-day-old transgenic MMTV PyMT mice (Hutchinson 2000). These mice express the polyoma virus middle T antigen (MT) under the transcriptional control of the mouse mammary tumor virus (MMTV), leading to the induction of multi-focal mammary tumors in 100% of carriers. MDA-MB-435 tumors in nude mice and peptide synthesis have been described (Laakkonen 2002; Laakkonen 2004). B16F1 murine melanoma tumors were grown in fibrinogen null mice (Suh 1995) and their normal littermates and used when they reached 0.5-1 cm in size (Pilch 2006)."}, "[2]": {"tested_on": "PyMT tumors", "assay": "Tumor homing of intravenously injected fluorescent CREKA peptide", "format": "in vivo, mouse", "details": "intravenous; fluorescent dye at N-terminus; minutes to hours after the injection", "description": "as §1, §2"}, "[3]": {"tested_on": "B16F1 melanomas", "assay": "CREKA peptide homing in fibrinogen null mice and normal littermates", "format": "in vivo, mouse", "details": "intravenous", "description": "Tumors contain a meshwork of clotted plasma proteins in the tumor stroma and the walls of vessels, but no such meshwork is detectable in normal tissues (Dvorak 1985; Abe 1999; Pilch 2006). The mesh-like pattern produced by the CREKA peptide in tumors prompted the study of whether clotted plasma proteins can be the target of this peptide. The peptide was tested in fibrinogen knockout mice, which lack the fibrin meshwork in their tumors. […] Its structure makes it an attractive peptide to use in nanoparticle targeting because, unlike other clot-binding peptides, which are cyclic 10 amino-acid peptides (Pilch 2006), CREKA is linear and contains only 5 amino acids. Moreover, the sulfhydryl group of the single cysteine residue is not required to provide binding activity and can be used to couple the peptide to other moieties.\nPhage screening, tumors and peptides. In vivo screening of a peptide library with the general structure of CX7C (SEQ ID NO: 4), where C is cysteine and X is any amino acid, was carried out as described (Oh 2004) using 65- to 75-day-old transgenic MMTV PyMT mice (Hutchinson 2000). These mice express the polyoma virus middle T antigen (MT) under the transcriptional control of the mouse mammary tumor virus (MMTV), leading to the induction of multi-focal mammary tumors in 100% of carriers. […]"}, "[4]": {"tested_on": "mouse plasma clots", "assay": "Nanoparticle binding to plasma clots in vitro", "details": "FIG. 1D", "description": "Phage and nanoparticle binding to clots. Phage binding to clotted plasma proteins was determined as described (Pilch 2006). CREKA-SPIO and control SPIO were added to freshly formed plasma clots in the presence or absence of free CREKA peptide. After 10 min incubation, the clots were washed 4 times in PBS, transferred to a new tube and digested in 100 μl concentrated nitric acid. The digested material was diluted in 2 ml distilled water and the iron concentration was determined using inductively coupled plasma-optical emission spectroscopy (ICP-OES, PerkinElmer, Norwalk, Conn.)."}, "[5]": {"tested_on": "orthotopic 22Rv1 xenograft tumors", "assay": "In vivo homing of FAM-labeled CREKA and methylated CREKA peptides", "set-up": "species or system mouse", "description": "Tumor accumulation of CREKA peptide and its N-methylated and C-methylated variants. The accumulation of N-methylated and C-methylated derivatives of CREKA was measured in mice bearing orthotropic 22Rv-1 xenograft tumors. The mice were intravenously injected with 200 μg of FAM-conjugated CREKA or methylated CREKA peptides derivatives. The peptides were allowed to circulate for 3 hrs. The mice were then perfused through the heart with PBS, and organs were collected and the fluorescence was measured under UV light. The fluorescence was analyzed with Image J software. Most N/C-methylated CREKA analogs produced stronger fluorescence compared to the unmodified CREKA. […] In FIG. 10B the enhanced fluorescence of CR(NMe)EKA is shown in the tumor compared to both CREKA and C(NMe)REKA peptide. It is shown that FAM-labeled CREKA peptide in which the glutamic acid is N-methylated accumulates in tumor tissue more strongly than unmodified CREKA.\nOrthotopic prostate cancers were used when they reached 0.5-1 cm in size. Synthetic peptides labeled with fluorescein (approximately 200 μg) were intravenously injected into tumor-bearing mice and allowed to circulate for 15 minutes to 3 hours. The mice were perfused with PBS through the heart under anesthesia, and tissues were collected and observed under UV light (Illumatool Bright Light System LT-9900, Lightools Research, Encinitas, Calif.), and then processed for immunofluorescence or immunohistochemistry."}, "[6]": {"assay": "Peptide stability in vivo (NW-bound peptide recovered from blood, mass spectrometry)", "set-up": "species or system mouse", "description": "The peptides were conjugated with a linker that bridges the NW and a cysteine residue on the peptide, forming a disulfide with the OPSS group. The peptide-coated NW were injected into animals, and blood was collected 15 minutes and 3 hours after the injection. The plasma was separated and NW were collected by ultracentrifugation (100,000×g for 10 minutes at 4° C.). Proteins bound to the NW were removed by incubation with glycine-HCl, pH 2.8 on a magnetic LS columns (MACS separation columns, Miltenyi Biotec, Bergisch Gladbach, Germany). The peptides were cleaved from the NW by incubating with 10 mM dithiothreitol for 30 minutes at room temperature. The iron oxide was separated from the peptide by ultracentrifugation (100,000×g for 10 minutes at 4° C.) and the supernatant fractions containing the peptide were analyzed by matrix-assisted laser desorption ionization-time of flight (MALDI-TOF) mass spectrometry."}, "[7]": {"target": "plasma clots", "assay": "Binding to plasma clots (affinity)", "details": "data not shown"}}, "note": "Where no end group is shown, it is not given here. FAM = 5(6)-carboxyfluorescein; Ahx = NCCCCCC(=O)O", "data": [{"substance": "cys-arg-glu-lys-ala ({FAM-Ahx}-CREKA; not fully specified; printed as cys-arg-glu-lys-ala)", "values": [{"measurement": "whole animal imaging: elimination and liver accumulation", "setting": "[1]; 30 μg Alexa Fluor 647-labeled CREKA, 6 hours", "result": "excreted into the urine and does not accumulate in the liver"}, {"measurement": "CREKA peptide detection in tumors", "setting": "[1]; intravenous, fluorescent dye at N-terminus, minutes to hours after the injection", "result": "readily detectable"}, {"measurement": "CREKA peptide detection in normal tissues", "setting": "[1]; intravenous, fluorescent peptide", "result": "essentially undetectable"}, {"measurement": "CREKA peptide detection in tumors", "setting": "[2]", "result": "readily detectable"}, {"measurement": "accumulation in tumors grown in fibrinogen null mice", "setting": "[3]; fibrinogen null mice", "result": "failed to accumulate"}, {"measurement": "accumulation in tumors grown in normal littermates", "setting": "[3]; normal littermates of the null mice", "result": "formed a brightly fluorescent meshwork"}, {"measurement": "effect of free peptide on CREKA-SPIO binding to clotted plasma proteins", "setting": "[4]", "result": "inhibited"}, {"measurement": "fluorescence in the tumors", "setting": "[5]; 30 minutes after the injection", "result": "equally strong fluorescence"}, {"measurement": "decrease of tumor fluorescence", "setting": "[5]; after 3 hours", "result": 70, "unit": "%"}, {"measurement": "peptide abundance in blood samples", "setting": "[6]; after 15 minutes of circulation", "result": "equally abundant"}, {"measurement": "peptide in blood samples", "setting": "[6]; after 3 hours", "result": "undetectable"}, {"measurement": "Kd", "setting": "[7]", "result": 6, "unit": "µM"}]}]}
